Reference: patent publication US7910574B2, “Treatments for the control of schistosomiasis” (Illinois State University, priority 2007, dated 2011)

Legend:
adult S. mansoni worms [1] = experiment: microbe, parasite or virus in culture; details: Schistosoma mansoni
S. mansoni infected mice = experiment: In vivo drug treatment of S. mansoni infected mice; design: species or system Schistosoma mansoni; details: for decrease in worm burden vs control infected mice: perfusion day 49
[2] = biological target: parasite TGR (thioredoxin reductase activity) (Schistosoma mansoni, UniProt Q962Y6); experiment: Thioredoxin reductase activity of TGR in homogenates of treated cultured worms; details: 10 μM, 18 hrs treatment of cultured worms
Procedure: (§1) Freshly perfused adult S. mansoni worms were cultured with 10 μM furoxan or 50 μM NBPPTA. […] The activity of lactate dehydrogenase was monitored as a control enzyme.
(§2) Enzyme assays were performed at 25° C. in 0.1 M potassium phosphate, pH 7.4, 10 mM EDTA. Thioredoxin reductase activity of TGR was determined using either 3 mM 5,5′ dithiobis(2-nitrobenzoic acid) (DTNB, Ellman's reagent) or 16 μM recombinant S. mansoni thioredoxin-1 (Alger et al 2002). One enzyme unit was defined as the NADPH-dependent production of 2 μmol of 2-nitro-5-thiobenzoic acid per minute using ε412 nm=13.6 mM^−1 cm^−1 or the consumption of 1 μmol of NADPH (ε340 nm=6.22 mM^−1 cm^−1) during the first three minutes. Glutathione reductase activity was determined with 100 μM GSH disulfide and 100 μM NADPH by measuring the decrease in A340 nm due to consumption of NADPH (ε340 nm=6.22 mM^−1 cm^−1) during the first three minutes. Activity of the control enzyme lactate dehydrogenase (LDH) was determined with 10 μM sodium pyruvate and 100 μM NADPH. Each assay was done in triplicate and each experiment was repeated three times.
(§3) Compounds were dissolved in dimethylsulfoxide (DMSO) and added at concentrations indicated to freshly perfused worms in RPMI1640 containing 25 mM Hepes, pH 7, 150 units/ml penicillin, 125 μg/ml streptomycin, and 10% fetal calf serum (Cell Grow, Fisher). […]

adult S. mansoni worms [3] = test system: adult S. mansoni worms
[4] = biological target: parasite TGR (GSH reductase activity) (Schistosoma mansoni, UniProt Q962Y6); experiment: Glutathione reductase activity of TGR in homogenates of treated cultured worms; details: 10 μM, 18 hrs treatment of cultured worms
Procedure: as §1, §2, §3

TGR = TGR (Schistosoma mansoni, UniProt Q962Y6); experiment: Mode of TGR inhibition; details: through release of NO
[5] = test system: parasite lactate dehydrogenase; experiment: Lactate dehydrogenase control enzyme activity in homogenates of treated worms; assay type: cell-based, Schistosoma mansoni; details: 10 μM, treated worm homogenates
[6] = test system: murine myeloma cell line SP2/0; experiment: Cytotoxicity assay (sulforhodamine B); assay type: cell-based
Procedure: To examine if furoxan is tolerated by mammalian cells, we incubated the murine myeloma cell line SP2/0 with the drugs at given concentrations and monitored cell viability at 24 hr and 120 hr. At 120 hr in 2 μM furoxan ˜25% mortality of myeloma cells was observed compared to 100% mortality of adult S. mansoni worms at the same concentration. Myeloma cells tolerated furoxan at concentrations as high as 100 μM. Differential cytotoxicity of furoxan on the worm survival and myeloma cells were also seen after 24 hrs of drug application.
Cytotoxicity assays were performed using sulforhodamine B to determine cellular protein content. Murine myeloma cell line SP2/0 was cultured in 96-well microtiter plates containing 0.2 ml of RPMI-1640 per well at a cell density of 900 per well at 37° C. in 5% CO2. Cells were treated with drug concentrations (or drug carrier alone) for times as indicated. After treatment, cells were fixed with 10% TCA at 4° C. for 1 hr. Fixed cells were rinsed to remove fixative and then stained in 0.4% (wt/vol) sulforhodamine B (Sigma) in 1% acetic acid for 35 min. After washing with 1% acetic acid and dye extraction in 10 mM Tris (pH 10.5), plates were read at A564 nm. The A564 nm of drug-treated cells was compared to carrier-only-treated cells.

[7] = biological target: recombinant S. mansoni TGR (Schistosoma mansoni, UniProt Q962Y6); experiment: NO release with recombinant SmTGR (ABTS oxidation); assay type: biochemical; details: 10 μM oxadiazole, 15 nM SmTGR, P<0.05
Procedure: Because oxadiazoles are known to release nitric oxide (NO) at physiological levels of thiols, we examined if NO release played a part in their mechanism of action (TGR inhibition and worm killing). […] The NO releasing capability of oxadiazoles was next tested with recombinant S. mansoni TGR enzyme with and without NADPH.
NO release by different oxadiazoles was determined by 2,2′-azino-bis(3-ethylbenzthiazoline-6-sulphonic acid) [ABTS, Sigma] oxidation method [Nims et al, Methods 7, 48-54; 1995]. Different oxadiazoles at 10 μM were incubated at RT for 50 minutes with 15 nM recombinant SmTGR in the presence or absence of 100 μM NADPH. The (oxadiazole+SmTGR/±NADPH) mixture was then added to an aerobic PBS, pH 7.4, containing 5 mM ABTS. The absorbance of the resulting green ABTS^+ were measured at A660. A conversion factor was calculated to adjust the readings from 1 ml reaction to 96-well plate. The concentrations of the released NO were calculated as a percentage of the added oxadiazoles. Each reaction was done in triplicate and the data is the average of three independent experiments. […] The slope of the regression line was calculated and used to recalculate the data at A660 in 200 μl reaction [Nims et al, Methods 7, 48-54; 1995].

[8] = 10 mg/kg once a day, 5 days, ip; cited from earlier work
[9] = test system: S. mansoni infections in mice; details: juvenile liver parasites targeted, mouse model; cited from earlier work

recombinant S. mansoni TGR, sequence (Q962Y6 1-598): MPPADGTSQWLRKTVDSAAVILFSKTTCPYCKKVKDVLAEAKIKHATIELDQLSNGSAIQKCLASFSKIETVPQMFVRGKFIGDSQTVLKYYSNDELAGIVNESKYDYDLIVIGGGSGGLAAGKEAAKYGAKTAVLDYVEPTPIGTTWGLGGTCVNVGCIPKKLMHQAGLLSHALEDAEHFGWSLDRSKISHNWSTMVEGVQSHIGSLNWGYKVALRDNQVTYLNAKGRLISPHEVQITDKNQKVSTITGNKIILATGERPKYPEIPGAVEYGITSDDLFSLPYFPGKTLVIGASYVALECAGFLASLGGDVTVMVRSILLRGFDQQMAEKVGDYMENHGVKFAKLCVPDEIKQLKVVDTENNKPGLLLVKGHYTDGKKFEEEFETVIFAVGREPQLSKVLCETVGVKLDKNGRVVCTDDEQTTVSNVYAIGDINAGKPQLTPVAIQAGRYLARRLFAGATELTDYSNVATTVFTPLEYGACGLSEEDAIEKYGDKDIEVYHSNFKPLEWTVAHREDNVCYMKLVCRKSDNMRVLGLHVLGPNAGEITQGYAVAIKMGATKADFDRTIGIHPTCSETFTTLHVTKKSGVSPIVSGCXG
parasite TGR (GSH reductase activity), sequence (Q962Y6 1-598): as above
parasite TGR (thioredoxin reductase activity), sequence (Q962Y6 1-598): as above
TGR, sequence (Q962Y6 1-598): as above

## N#Cc1c(-c2ccccc2)no[n+]1[O-] [Analogue 9]
Adult S. mansoni worms [1]; 24 h, read-out: inhibition of motility of adult parasites
  inhibition at 1.87 µg/mL: 100%
Adult S. mansoni worms [1]; 120 h, read-out: mortality of adult S. mansoni worms
  mortality at 2 µM: 100%
S. mansoni infected mice; 10 mg/kg, regardless of lifecycle stage
  reduction in worm burdens, all trials in mice: ≥ 89%
S. mansoni infected mice; early stage treatment (treatment 1), total from the eight mice infected
  adult parasites recovered: one
S. mansoni infected mice; treatment 1 (skin stage)
  liver egg granulomas: no signs of egg granulomas
S. mansoni infected mice; treatment 1 (skin stage), P<0.0001
  hepatomegaly vs control infected mice: reduction of hepatomegaly
S. mansoni infected mice; treatment 1: 10 mg/kg ip once daily x5 from day 1 after infection (skin stage)
  decrease in worm burden vs control infected mice: > 99%
S. mansoni infected mice; treatment 2 (juvenile liver stage)
  number of liver granulomas vs control infections: considerably reduced
S. mansoni infected mice; treatment 2 (juvenile liver stage), P<0.0001
  hepato- and splenomegaly vs control infected mice: dramatic reductions in hepato- and splenomegaly
S. mansoni infected mice; treatment 2: 10 mg/kg ip once daily x5 from day 23 (juvenile liver stage)
  decrease in worm burden vs control infected mice: 89%
S. mansoni infected mice; treatment 3 (adult stage)
  egg-induced liver granulomas vs control group: greatly reduced number
S. mansoni infected mice; treatment 3 (adult stage), P<0.0001
  hepatomegaly vs control group: dramatic reduction in hepatomegaly
S. mansoni infected mice; treatment 3: 10 mg/kg ip once daily x5 from day 37 (adult egg laying)
  decrease in worm burden vs control infected mice: 94%
[2]
  reduction of thioredoxin reductase activity of parasite TGR vs carrier control: 83%
Adult S. mansoni worms [3]; 0.38 μg/ml, longer times
  activity against adult parasites: active
Adult S. mansoni worms [3]; 2 μM
  time to kill worms: 120 h
Adult S. mansoni worms [3]; 10 μM furoxan with 100 μM carboxy-PTIO
  worm viability with NO scavenger: extended
Adult S. mansoni worms [3]; 10 μM, within 24 hr, axenically cultured adult worms
  parasite death: 100%
[4]
  reduction of GSH reductase activity of parasite TGR vs carrier control: 93%
TGR
  mode of inhibition of TGR: time-dependent irreversible inhibition
[5]
  activity of parasite lactate dehydrogenase vs carrier only treated worms: no significant change
[6]
  concentration tolerated by myeloma cells: ≤ 100 µM
[6]; 2 μM, 120 hr
  mortality of myeloma cells: ~25%
[7]; +NADPH
  NO release relative to the other oxadiazoles tested: 10 ×
[7]; −NADPH
  NO release relative to the other oxadiazoles tested: 3 ×
[8]
  tolerability in mice: well tolerated

## O=C(C1CCCCC1)N1CC(=O)N2CCc3ccccc3C2C1 (stereo not drawn) [PZQ, praziquantel]
[9]
  reduction in worm burdens: 25-30%
